Measurements published in paper PMC10824666 (Nature Cancer, 2023).
Like-named read-outs stand apart in the source and are kept apart here.

Columns and labels:
Experiment in all cases: biochemical
Parameters in all cases: Eurofins DiscoverX kinase panel, competitive binding assay at 1 uM, percent of DMSO control
Details in all cases: competitive binding, percent of DMSO control
ERN1 = ERN1 (Homo sapiens, UniProt O75460)
Outline: (§1)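 Competitive binding assay across a 96-kinase panel with KIF18A compounds at 1 µM; values given as percentage of control (POC), single experiment.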

TGFBR1 = molecular target: T1, TGFBR1 (Homo sapiens, UniProt P36897)
T1 sequence (P36897 1-503): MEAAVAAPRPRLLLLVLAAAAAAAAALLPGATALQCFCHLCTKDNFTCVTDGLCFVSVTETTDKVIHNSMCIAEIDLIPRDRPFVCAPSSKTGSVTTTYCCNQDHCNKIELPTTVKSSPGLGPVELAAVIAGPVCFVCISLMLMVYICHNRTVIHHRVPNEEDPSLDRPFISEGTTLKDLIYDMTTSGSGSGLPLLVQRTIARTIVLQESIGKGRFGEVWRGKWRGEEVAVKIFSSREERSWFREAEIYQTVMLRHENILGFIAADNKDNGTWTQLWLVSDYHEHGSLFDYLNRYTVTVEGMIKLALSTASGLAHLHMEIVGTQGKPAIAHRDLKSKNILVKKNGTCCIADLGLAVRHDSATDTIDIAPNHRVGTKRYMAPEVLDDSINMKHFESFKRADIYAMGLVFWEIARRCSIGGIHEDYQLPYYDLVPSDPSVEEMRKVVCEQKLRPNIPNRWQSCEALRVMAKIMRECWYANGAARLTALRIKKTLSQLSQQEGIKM
Outline: as §1

MST2 = molecular target: T2, MST2 (Homo sapiens, UniProt Q13188)
T2 construct: gene STK3
T2 sequence (Q13188 1-491): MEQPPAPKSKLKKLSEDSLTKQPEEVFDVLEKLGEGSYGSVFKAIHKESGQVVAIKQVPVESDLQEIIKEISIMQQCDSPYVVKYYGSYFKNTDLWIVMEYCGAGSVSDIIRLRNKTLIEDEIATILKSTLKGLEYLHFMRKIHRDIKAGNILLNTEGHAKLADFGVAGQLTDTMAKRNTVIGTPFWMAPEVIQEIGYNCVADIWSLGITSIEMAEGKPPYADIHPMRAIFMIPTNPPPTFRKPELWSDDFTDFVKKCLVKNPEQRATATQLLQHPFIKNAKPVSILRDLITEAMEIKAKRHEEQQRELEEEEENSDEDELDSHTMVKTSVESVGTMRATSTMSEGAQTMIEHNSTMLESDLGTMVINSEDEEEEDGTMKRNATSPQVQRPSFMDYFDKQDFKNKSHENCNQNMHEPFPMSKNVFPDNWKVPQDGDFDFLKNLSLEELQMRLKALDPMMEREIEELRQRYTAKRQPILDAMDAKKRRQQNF
Outline: as §1

Trk-A = molecular target: T3, Trk-A (Homo sapiens, UniProt P04629)
T3 construct: gene NTRK1
Outline: as §1

BMPR1A = BMPR1A (Homo sapiens, UniProt P36894)
Outline: as §1

CLK4 = CLK4 (Homo sapiens, UniProt Q9HAZ1)
Outline: as §1

RPS6KB1 = RPS6KB1 (Homo sapiens, UniProt P23443)
Outline: as §1

[1] = read-out: Kinome Profiling performed by Eurofins DiscoverX / AM-1882, 1.0 µM / POC
[2] = read-out: Kinome Profiling performed by Eurofins DiscoverX / AM-0277, 1.0 µM / POC
[3] = read-out: Kinome Profiling performed by Eurofins DiscoverX / AM-5308, 1.0 µM / POC

Chain of RPS6KB1 (P23443 whole entry): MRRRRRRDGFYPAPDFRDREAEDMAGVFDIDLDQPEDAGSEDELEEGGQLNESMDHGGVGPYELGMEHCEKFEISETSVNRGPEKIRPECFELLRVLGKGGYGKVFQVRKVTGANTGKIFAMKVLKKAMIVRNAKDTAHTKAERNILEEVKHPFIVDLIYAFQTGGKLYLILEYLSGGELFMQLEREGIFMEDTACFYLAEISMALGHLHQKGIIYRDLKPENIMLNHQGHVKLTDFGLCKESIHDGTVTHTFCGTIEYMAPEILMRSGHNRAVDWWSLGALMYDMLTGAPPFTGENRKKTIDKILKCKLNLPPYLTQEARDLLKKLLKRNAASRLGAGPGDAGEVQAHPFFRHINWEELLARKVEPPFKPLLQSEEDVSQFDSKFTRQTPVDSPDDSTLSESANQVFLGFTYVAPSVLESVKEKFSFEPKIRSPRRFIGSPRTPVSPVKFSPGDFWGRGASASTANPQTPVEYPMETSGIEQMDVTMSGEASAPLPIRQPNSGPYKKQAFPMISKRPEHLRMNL
Chain of BMPR1A (P36894 whole entry): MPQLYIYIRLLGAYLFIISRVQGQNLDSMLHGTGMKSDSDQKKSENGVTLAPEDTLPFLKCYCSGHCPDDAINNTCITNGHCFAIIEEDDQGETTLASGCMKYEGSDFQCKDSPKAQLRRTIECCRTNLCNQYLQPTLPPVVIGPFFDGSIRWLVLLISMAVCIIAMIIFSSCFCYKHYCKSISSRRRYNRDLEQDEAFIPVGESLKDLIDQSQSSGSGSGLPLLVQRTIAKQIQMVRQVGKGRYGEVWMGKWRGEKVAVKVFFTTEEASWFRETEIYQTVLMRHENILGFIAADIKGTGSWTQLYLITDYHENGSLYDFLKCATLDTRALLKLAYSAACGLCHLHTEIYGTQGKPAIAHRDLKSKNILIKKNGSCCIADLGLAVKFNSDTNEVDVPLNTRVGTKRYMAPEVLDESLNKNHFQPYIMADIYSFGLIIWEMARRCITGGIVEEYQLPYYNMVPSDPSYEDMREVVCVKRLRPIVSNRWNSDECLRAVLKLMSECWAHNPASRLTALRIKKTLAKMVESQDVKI
T3 sequence (P04629 whole entry): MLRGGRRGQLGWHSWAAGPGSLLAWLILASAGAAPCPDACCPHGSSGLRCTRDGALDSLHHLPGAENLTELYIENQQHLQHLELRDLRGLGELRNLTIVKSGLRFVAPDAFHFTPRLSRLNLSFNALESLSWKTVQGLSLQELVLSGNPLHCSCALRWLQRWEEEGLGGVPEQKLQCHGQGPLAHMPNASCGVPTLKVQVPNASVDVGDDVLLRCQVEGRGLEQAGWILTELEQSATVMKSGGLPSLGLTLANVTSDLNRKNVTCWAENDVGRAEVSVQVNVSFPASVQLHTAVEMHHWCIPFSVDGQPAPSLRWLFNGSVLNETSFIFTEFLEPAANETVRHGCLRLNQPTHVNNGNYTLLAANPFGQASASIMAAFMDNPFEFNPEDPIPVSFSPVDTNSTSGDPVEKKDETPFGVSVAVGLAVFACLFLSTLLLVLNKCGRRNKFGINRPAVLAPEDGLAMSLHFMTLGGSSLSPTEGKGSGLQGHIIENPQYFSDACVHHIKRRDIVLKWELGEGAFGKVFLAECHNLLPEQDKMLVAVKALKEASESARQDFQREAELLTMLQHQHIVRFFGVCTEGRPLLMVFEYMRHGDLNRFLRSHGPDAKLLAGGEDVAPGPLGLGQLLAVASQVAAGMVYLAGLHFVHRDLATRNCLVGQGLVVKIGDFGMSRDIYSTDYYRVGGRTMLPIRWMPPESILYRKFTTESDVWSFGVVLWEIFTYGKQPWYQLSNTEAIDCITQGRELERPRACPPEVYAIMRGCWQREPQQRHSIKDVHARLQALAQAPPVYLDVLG
Chain of CLK4 (Q9HAZ1 whole entry): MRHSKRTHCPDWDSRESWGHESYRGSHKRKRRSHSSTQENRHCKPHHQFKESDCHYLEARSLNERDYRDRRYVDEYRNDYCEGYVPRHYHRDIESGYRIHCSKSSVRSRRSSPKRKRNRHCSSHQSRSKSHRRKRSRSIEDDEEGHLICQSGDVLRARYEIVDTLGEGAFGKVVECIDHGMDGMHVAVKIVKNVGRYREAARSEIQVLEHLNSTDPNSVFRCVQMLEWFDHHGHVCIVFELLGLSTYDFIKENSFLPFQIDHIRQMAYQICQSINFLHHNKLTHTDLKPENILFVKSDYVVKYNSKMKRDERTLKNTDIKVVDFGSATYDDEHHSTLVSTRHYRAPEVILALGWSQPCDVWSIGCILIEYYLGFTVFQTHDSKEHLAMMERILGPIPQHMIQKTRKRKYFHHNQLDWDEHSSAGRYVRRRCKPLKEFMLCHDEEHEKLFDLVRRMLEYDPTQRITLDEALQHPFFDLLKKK
Chain of ERN1 (O75460 whole entry): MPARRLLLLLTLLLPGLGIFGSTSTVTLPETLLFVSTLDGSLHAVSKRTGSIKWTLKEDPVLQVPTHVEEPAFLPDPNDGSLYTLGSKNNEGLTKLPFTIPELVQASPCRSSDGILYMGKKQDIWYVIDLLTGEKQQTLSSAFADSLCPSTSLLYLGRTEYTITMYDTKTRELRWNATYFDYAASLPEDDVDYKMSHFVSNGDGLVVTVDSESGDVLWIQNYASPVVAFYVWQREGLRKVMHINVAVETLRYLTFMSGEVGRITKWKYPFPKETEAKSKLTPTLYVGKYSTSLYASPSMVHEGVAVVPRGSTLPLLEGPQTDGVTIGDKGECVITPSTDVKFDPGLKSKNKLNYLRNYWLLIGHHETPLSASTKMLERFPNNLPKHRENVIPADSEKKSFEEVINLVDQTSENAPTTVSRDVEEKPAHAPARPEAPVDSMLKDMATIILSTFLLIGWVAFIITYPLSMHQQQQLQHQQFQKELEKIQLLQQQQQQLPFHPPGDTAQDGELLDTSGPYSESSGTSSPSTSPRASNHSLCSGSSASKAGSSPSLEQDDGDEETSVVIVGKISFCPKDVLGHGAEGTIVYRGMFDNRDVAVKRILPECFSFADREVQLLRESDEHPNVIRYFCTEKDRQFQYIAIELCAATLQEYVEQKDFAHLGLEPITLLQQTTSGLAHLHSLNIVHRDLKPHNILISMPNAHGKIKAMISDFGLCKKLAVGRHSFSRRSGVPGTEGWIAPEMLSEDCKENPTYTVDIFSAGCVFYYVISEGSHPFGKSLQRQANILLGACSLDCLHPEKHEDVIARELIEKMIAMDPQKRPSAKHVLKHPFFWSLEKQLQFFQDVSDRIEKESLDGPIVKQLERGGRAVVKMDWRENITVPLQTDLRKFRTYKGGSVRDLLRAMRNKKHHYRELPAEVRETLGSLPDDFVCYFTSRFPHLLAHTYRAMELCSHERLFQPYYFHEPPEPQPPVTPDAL

Structure (SMILES): CC(C)(C)NS(=O)(=O)c1cccc(NC(=O)c2ccc(S(=O)(=O)NC(C)(C)C)cc2N2CCC3(CC2)CC3)c1 [AM-1882]
- remaining activity at 1 µM (ERN1; [1]): 100%
- remaining activity at 1 µM (TGFBR1; [1]): 94%
- remaining activity at 1 µM (MST2; [1]): 91.5%
- remaining activity at 1 µM (Trk-A; [1]): 54.5%
- remaining activity at 1 µM (BMPR1A; [1]): 100%
- remaining activity at 1 µM (CLK4; [1]): 100%
- remaining activity at 1 µM (RPS6KB1; [1]): 61%

Structure (SMILES): CC(C)(CO)Nc1ccc(C(=O)Nc2cccc(S(=O)(=O)C3CCCC3)c2)c(N2CCC3(CC2)CC3)n1 [AM-0277]
- remaining activity at 1 µM (ERN1; [2]): 100%
- remaining activity at 1 µM (TGFBR1; [2]): 73%
- remaining activity at 1 µM (MST2; [2]): 49%
- remaining activity at 1 µM (Trk-A; [2]): 40%
- remaining activity at 1 µM (BMPR1A; [2]): 100%
- remaining activity at 1 µM (CLK4; [2]): 97%
- remaining activity at 1 µM (RPS6KB1; [2]): 100%

Structure (SMILES): C[C@@H]1CN(c2cccc(NC(=O)c3ccc(NS(=O)(=O)CCO)cc3N3CCC4(CC3)CC4)n2)CCO1 [AM-5308]
- remaining activity at 1 µM (ERN1; [3]): 80%
- remaining activity at 1 µM (TGFBR1; [3]): 100%
- remaining activity at 1 µM (MST2; [3]): 86.5%
- remaining activity at 1 µM (Trk-A; [3]): 17.5%
- remaining activity at 1 µM (BMPR1A; [3]): 93.5%
- remaining activity at 1 µM (CLK4; [3]): 100%
- remaining activity at 1 µM (RPS6KB1; [3]): 94.5%
